The values that follow come from PMC6315362, “Cytotoxic Potential of the Novel Horseshoe Crab Peptide Polyphemusin III” (Marine Drugs, 2018).

In general, IC50 refers to the concentration at which inhibition is half-maximal. Low readings indicate greater potency, high ones weaker potency.

Where a SMILES comes first, the peptide text is derived from it. Bridges are numbered along the chain shown (N, C = ends).

The subject of one assay is K. pneumoniae (CI 287). The experiment in a line: Antimicrobial assay, broth microdilution MIC. The assay is classed as cell-based, Klebsiella pneumoniae. As to conditions: Gram -, MH medium with NaCl, 24 h 37 °C, median of three independent triplicated experiments. Here is the method:
(§1) Bacterial test cultures were grown in the Mueller-Hinton (MH) medium at 37 °C to mid-log phase and then diluted with the 2 x MH medium supplemented with 1.8% NaCl. 50 µL of the bacterial suspension with a final cell concentration of 10^6 CFU/mL were added to aliquots of 50 µL of the peptide solutions and serially diluted with sterilized 0.1% bovine serum albumin in 96-well flat-bottom polystyrene microplates (Eppendorf, Hamburg, Germany). Bacterial cells were incubated for 24 h at 37 °C and 900 rpm on the plate thermoshaker (Biosan, Riga, Latvia). The minimum inhibitory concentrations (MIC) were determined as the lowest peptide concentration that prevented growth of a test microorganism observed as visible turbidity. The results were expressed as median values of three independent triplicated experiments. Assessment of antimicrobial activities of the recombinant PM III, other polyphemusins, and tachyplesins was conducted against Gram-negative (Escherichia coli ML-35p, Klebsiella pneumoniae (clinical isolate, CI 287), Pseudomonas aeruginosa PAO1) and Gram-positive (Staphylococcus aureus ATCC 29213, Staphylococcus aureus 209P, Bacillus subtilis B-886, Micrococcus luteus B-1314) bacteria.
For orientation: Dilution methods test growth across graded concentrations, often in twofold steps.

For another assay, the system named is S. aureus 209P. The experiment in a line: Antimicrobial assay, broth microdilution MIC. As to conditions: Gram +, MH medium with NaCl, 24 h 37 °C, median of three independent triplicated experiments. The assay is classed as cell-based, Staphylococcus aureus. The procedure: as §1
The test system of the next assay is S. aureus ATCC 29213. The experiment in a line: Antimicrobial assay, broth microdilution MIC. The class given is cell-based, Staphylococcus aureus. The settings on record: S. aureus ATCC 29213, Gram +, MH medium with NaCl, 24 h 37 °C, median of three independent triplicated experiments. The procedure: as §1
For the next assay, the system named is B. subtilis B-886. The experiment in a line: Antimicrobial assay, broth microdilution MIC. The assay is classed as cell-based, Bacillus subtilis. The settings on record: B. subtilis B-886, Gram +, MH medium with NaCl, 24 h 37 °C, median of three independent triplicated experiments. Here is the method:
as §1

For a further assay, the system named is E. coli ML-35p. The experiment in a line: Antimicrobial assay, broth microdilution MIC. The class given is cell-based, Escherichia coli. As to conditions: Gram -, MH medium with NaCl, peptide diluted in 0.1% BSA, 10^6 CFU/mL, 24 h 37 °C, median of three independent triplicated experiments. The procedure: as §1
For assay [1], the system named is HL-60 (acute promyelocytic leukemia). The assay is classed as cell-based, human. As to conditions: MTT after 48 h, RPMI-1640 with 10% FBS, mean ± SD of at least three independent experiments. Here is the method:
(§2) Cytotoxic activities of PM III, its isoforms, and tachyplesins against seven human cell lines were evaluated. Four cancer (HL-60 acute promyelocytic leukemia, HeLa cervix adenocarcinoma, SK-BR-3 breast adenocarcinoma, A549 lung carcinoma), one transformed (HEK 293T transformed human embryonic kidney), and two normal human cell lines (HEF human embryonic fibroblasts and NHA normal human astrocytes) were used for these experiments. Cytotoxicity was measured by incubating the cells with serial dilutions of PM I, PM II, PM III, TP I, TP II, or TP III samples followed by MTT assay after 48 h. The half-maximal inhibitory concentrations (IC50) were measured as the peptide concentration at which cell viability was reduced by 50% in comparison to untreated cells (Table 3).
(§3) The following tumor and transformed cell lines were used in this study: HL-60 (acute promyelocytic leukemia), HeLa (human cervix adenocarcinoma cells), SK-BR-3 (human breast adenocarcinoma cells), A549 (human lung carcinoma cells), HEK 293T (transformed human embryonic kidney cells), HEF (human embryonic fibroblasts), and NHA (normal human astrocytes) were used as normal cell lines. Tumor and transformed cell lines were obtained from the American Type Culture Collection (ATCC; www.atcc.org). Primary cells HEF (normal human embryonic fibroblasts derived from human embryonic stem cells) and NHA (normal human astrocytes derived from human fetal brain tissue) were obtained and cultured according to the corresponding protocol. Briefly, cells were cultured in DMEM/F12 (1:1) or RPMI-1640 medium containing 10% fetal bovine serum (Invitrogen, USA) at 37 °C in the atmosphere containing 5% CO2 and 95% air according to standard mammalian tissue culture protocols and using a sterile technique. All cell lines were tested by using the LookOut® Mycoplasma PCR Detection Kit (Sigma-Aldrich, St. Louis, MO, USA) according to the manufacturer’s protocol and found to be free of Mycoplasma infection.
(§4) The colorimetric 3-(4,5-dimethylthiazol-2-yl)-2,5-diphenyltetrazolium bromide (MTT) dye reduction assay was used to determine the cytotoxicity of the polyphemusins and tachyplesins. Cells (3 × 10^3–6 × 10^3 per well) were placed into 96-well plates in Dulbecco’s modified Eagle’s medium (DMEM/F12) supplemented with 10% fetal bovine serum (FBS). After incubation in the atmosphere containing 5% CO2 and 95% air at 37 °C overnight, the media were discarded, and polyphemusins or tachyplesins solutions were added to the cell cultures up to final concentrations of 2.5, 5, 10, 25, and 50 μM in a final volume of 0.1 mL DMEM/F12 with 10% FBS. HL-60 cells (4 × 10^4 in 50 μL) were added to two-time serial dilutions of polyphemusins solutions at a final concentration of 1.25, 2.5, 5, 10, 25, and 50 μM in 50 μL RPMI-1640 with 10% FBS. 48 hours later, 20 μL of MTT (5 mg/mL) was added into each well and the plates were incubated for 3 h at 37 °C. The plates with HL-60 cells were centrifuged for 10 min at 300 g. The media were discarded and 0.1 mL of dimethyl sulfoxide and isopropanol mixture at a ratio of 1:1 (v/v) was added to each well to dissolve the crystallized formazan. The absorbance at 570 nm was measured by a microplate reader (Eppendorf, Hamburg, Germany).

Assay [2] has as its system HEF (human embryonic fibroblasts). The class given is cell-based. As to conditions: HEF normal cells; MTT after 48 h, DMEM/F12 with 10% FBS; mean ± SD of at least three independent experiments. The procedure:
as §2, §3, §4

The test system of assay [3] is NHA (normal human astrocytes). The assay is classed as cell-based. As to conditions: NHA normal cells; MTT after 48 h, DMEM/F12 with 10% FBS; mean ± SD of at least three independent experiments. Here is the method: as §2, §3, §4
Assay [4] deals with HEK 293T (transformed human embryonic kidney cells). The class given is cell-based. As to conditions: MTT after 48 h, DMEM/F12 with 10% FBS, mean ± SD of at least three independent experiments. Here is the method:
as §2, §3, §4

Assay [5] has as its system HeLa (human cervix adenocarcinoma cells). The class given is cell-based. As to conditions: MTT after 48 h, DMEM/F12 with 10% FBS, mean ± SD of at least three independent experiments. Here is the method: as §2, §3, §4
The test system of assay [6] is SK-BR-3 (human breast adenocarcinoma cells). The class given is cell-based. The settings on record: MTT after 48 h, DMEM/F12 with 10% FBS, mean ± SD of at least three independent experiments. Here is the method: as §2, §3, §4

For `CC[C@H](C)[C@@H]1NC(=O)CNC(=O)[C@H](CCCNC(=N)N)NC(=O)[C@H](Cc2ccc(O)cc2)NC(=O)[C@@H]2CSSC[C@H](NC1=O)C(=O)N[C@@H](Cc1ccc(O)cc1)C(=O)N[C@@H](CCCNC(=N)N)C(=O)N[C@@H](CCCCN)C(=O)N[C@H](C(=O)N[C@@H](CCCNC(=N)N)C(=O)O)CSSC[C@H](NC(=O)[C@H](Cc1c[nH]c3ccccc13)NC(=O)[C@@H](N)CCCCN)C(=O)N[C@@H](Cc1ccccc1)C(=O)N[C@@H](CCCNC(=N)N)C(=O)N[C@@H](C(C)C)C(=O)N2` [TP III, tachyplesin III] (H-KWCFRVCYRGICYRKCR-OH; disulfide 3-16, 7-12 (inferred); N-terminus assumed), the MICs against K. pneumoniae (CI 287) is 0.5 µM; against S. aureus 209P, 0.5 µM; in the assay with S. aureus ATCC 29213, 16 µM; with B. subtilis B-886 it was 1 µM; with E. coli ML-35p, 0.062 µM. In addition, the IC50 came to 5 ± 0.4 µM in assay [1]; 14.1 ± 1.2 µM in [2]; 21.3 ± 1.2 µM in assay [3]; 19.7 ± 1.9 µM in assay [4]; 13.7 ± 1.3 µM in [5]; 27.5 ± 0.8 µM in assay [6].
